The values below come from US7064122B2, “Pancreatic lipase inhibitor compounds, their synthesis and use” (OSI Pharmaceuticals, Inc., priority 2001, dated 2006).

The target in data set [1] is T1, type VI-S porcine pancreatic lipase (Sus scrofa, UniProt P00591).
T1 construct: purchased Sigma type VI-S (catalogue number not given)
T1 sequence (P00591 1-450): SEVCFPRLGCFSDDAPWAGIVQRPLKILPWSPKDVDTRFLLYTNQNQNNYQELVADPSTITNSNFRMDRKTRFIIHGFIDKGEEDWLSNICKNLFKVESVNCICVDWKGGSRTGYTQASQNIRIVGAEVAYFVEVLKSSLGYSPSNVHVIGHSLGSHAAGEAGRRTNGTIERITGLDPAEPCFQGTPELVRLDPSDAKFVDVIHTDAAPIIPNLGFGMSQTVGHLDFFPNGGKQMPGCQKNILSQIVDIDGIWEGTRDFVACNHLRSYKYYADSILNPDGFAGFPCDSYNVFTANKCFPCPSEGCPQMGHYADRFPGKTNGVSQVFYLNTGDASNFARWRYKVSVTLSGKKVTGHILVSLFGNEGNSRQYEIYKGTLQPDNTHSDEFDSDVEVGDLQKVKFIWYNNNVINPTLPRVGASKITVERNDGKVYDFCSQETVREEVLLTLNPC
The experiment in a line: Pancreatic lipase assay (pH-stat titration, triolein substrate). The class given is biochemical. On the set-up: Ymax: unit not given here. The conditions noted are these: for inhibition at 0.7 µM: 12.5 min; for k / Ymax: 7.0 nM lipase, 700 nM inhibitor, pH 8.0; for k: k fitted for the 12.5 min after inhibitor addition, Y=Ymax*(1-exp(-k*X)); for Ymax: Ymax of the fit Y=Ymax*(1-exp(-k*X)). How it is done:
The use of a pancreatic lipase assay has been described in the literature (Hadvary, P. et al. Biochem. J. (1988) 256: 357-361; Hadvary, P. et al. Biochem. J. (1991) 266:2021-2027). Pancreatic lipase activity was measured using a 718 Stat Titrino (Brinkmann) programmed to maintain a pH of 8.0 using 0.1 N NaOH. The substrate mixture (pH 8) contained 1 mM taurochenodeoxycholate (Sigma), 9 mM taurodeoxycholate (Sigma), 0.1 mM cholesterol (Sigma), 1 mM phosphatidylcholine (Sigma), 1.5% BSA, 2 mM Tris base, 100 mM NaCl, 10 mM CaCl2, and 3% triolein (Sigma). The mixture (5 mL) was emulsified via sonication at room temperature, and added to the titration vessel with rapid stirring. The Stat Titrino was turned on and lipase (7.0 nM type VI-S porcine pancreatic lipase (Sigma) dissolved in PBS) was added to the vessel. After 10 min, inhibitor (700 nM dissolved in 100% DMSO) was added and the reaction continued for an additional 12.5 min. The k values were determined for the 12.5 min after the addition of the inhibitor using a one phase exponential association equation, Y=Ymax*(1−exp(−k*X)), k values for lipase alone were 0.0004±0.0001 sec. The k values for compounds disclosed herein are >0.0004±0.0001 sec.

Regarding `CCCCCCCCOc1nc2sc(CCCCCCCC)c(C)c2c(=O)o1` [Entry 87], the melting point worked out at 36 °C. In data set [1], the inhibition at 0.7 µM is 27.9%.
In the case of `CCCCCCCCNc1nc2sc(C(=O)NC)c(C)c2c(=O)o1` [Entry 31, 5-Methyl-2-octylamino-4-oxo-4H-thieno[2,3-d][1,3]oxazine-6-carboxylic acid methylamide], the melting point is 152.5 to 158 °C. In addition, the k in data set [1] is listed as 0.777 10-3.s-1.
Regarding `CCCCCCCCNc1nc2sc(C(=O)N3CCc4cc(OC)c(OC)cc4C3)c(C)c2c(=O)o1` [Entry 65, 6-(6,7-Dimethoxy-3,4-dihydro-1H-isoquinoline-2-carbonyl)-5-methyl-2-octylamino-thieno(2,3-d)(1,3)oxazin-4-one], the melting point lay within 77 to 80 °C. For the same molecule, in data set [1], the Ymax came to 0.339 and the k is reported as 0.284 10-3.s-1.
The corresponding values for `CCCCCCCCNc1nc2sc(C(=O)NCc3ccc(OC)c(OC)c3)c(C)c2c(=O)o1` [Entry 66, 5-Methyl-2-octylamino-4-oxo-4H-thieno(2,3-d)(1,3)oxazine-6-carboxylic acid (2-(3,4-dimethoxy-phenyl)-methyl)-amide] are 159 to 163 °C, 0.118 and 1.027 10-3.s-1.
In turn, `CCCCCCCCCCc1cc2c(=O)oc(OCCOC)nc2s1` [Entry 96, 6-Decyl-2-(2-methoxy-ethoxy)-thieno[2,3-d][1,3]oxazin-4-one] yielded a melting point of 38 to 41 °C.
On the same count and under the same terms, to `CCCCCCCCCCc1cc2c(=O)oc(Oc3ccc(CCCC)cc3)nc2s1` [Entry 102, 2-(4-Butyl-phenoxy)-6-decyl-thieno[2,3-d][1,3]oxazin-4-one] belongs 55 to 58 °C.
Take `CCCCCCCCNc1nc2sc(C(=O)NCc3ccccc3)c(C)c2c(=O)o1` [Entry 21, 5-Methyl-2-octylamino-4-oxo-4H-thieno[2,3-d][1,3]oxazine-6-carboxylic acid benzylamide]: the k in data set [1] is 1.079 10-3.s-1.
Still for that read-out and setting: to `CCCCCCCCNc1nc2sc(C(=O)NCCCC)c(C)c2c(=O)o1` [Entry 32, 5-Methyl-2-octylamino-4-oxo-4H-thieno[2,3-d][1,3]oxazine-6-carboxylic acid butylamide] belongs 2.447 10-3.s-1.
As to `CCCCCCC(C)Nc1nc2sc(C(=O)OCc3ccccc3)c(C)c2c(=O)o1` (stereo not shown) [Entry 71, 5-Methyl-2-(1-methylheptylamino)-4-oxo-4H-thieno[2,3-d][1,3]oxazine-6-carboxylic acid benzyl ester], in data set [1], the Ymax turned out to be 14.657 and the k is 0.086 10-3.s-1.
Take `CCCCCCCCNc1nc2sc(C(=O)N(C)Cc3cccc(C)n3)c(C)c2c(=O)o1` [Entry 49, 5-Methyl-2-octylamino-4-oxo-4H-thieno[2,3-d][1,3]oxazine-6-carboxylic acid methyl-(6-methyl-pyridin-2-ylmethyl)-amide]: the k in data set [1] is given as 0.022 10-3.s-1.
For the molecule `CCCCCCCCNc1nc2sc(C(=O)NCCCOC)c(C)c2c(=O)o1` [Entry 73, 5-Methyl-2-octylamino-4-oxo-4H-thieno(2,3-d)(1,3)oxazine-6-carboxylic acid (3-methoxy-propyl)-amide], in data set [1], the Ymax worked out at 1.594 and the k is recorded as 0.794 10-3.s-1.
The corresponding values for `CCCCCCCCCCCc1nc2sc(CCCCCCC)cc2c(=O)o1` [Entry 67, 6-Heptyl-2-undecyl-thieno[2,3-d][1,3]oxazin-4-one] are 10.973 and 0.064 10-3.s-1.
`CCCCCCCCNc1nc2sc(C(=O)NC(CCCC)CCCC)c(C)c2c(=O)o1` [Entry 45, 5-Methyl-2-octylamino-4-oxo-4H-thieno[2,3-d][1,3]oxazine-6-carboxylic acid (1-butyl-pentyl)-amide]: the k in data set [1] is 0.770 10-3.s-1.
Same read-out and setting: to `CCCCCCCCOc1nc2sc(C(=O)O)c(C)c2c(=O)o1` [Entry 11, 5-Methyl-2-octyloxy-4-oxo-4H-thieno[2,3-d][1,3]oxazine-6-carboxylic acid] belongs 0.547 10-3.s-1.
In the case of `CCCCCCCCOc1nc2sc(C(C)CCCC(C)(C)OC)cc2c(=O)o1` (stereo not shown) [Entry 83, 6-(5-Methoxy-1,5-dimethyl-hexyl)-2-octyloxy-thieno[2,3-d][1,3]oxazin-4-one], the inhibition at 0.7 µM in data set [1] stood at 36.9%.
Turning to `CCCCCCCCNc1nc2sc(C(=O)NCC(C)C)c(C)c2c(=O)o1` [Entry 54, 5-Methyl-2-octylamino-4-oxo-4H-thieno[2,3-d][1,3]oxazine-6-carboxylic acid isobutyl-amide], the k in data set [1] is reported as 0.702 10-3.s-1.
`CCCCCCCCCCc1cc2c(=O)oc(OC(C)CCCCCC)nc2s1` (stereo not shown) [Entry 90, 6-Decyl-2-(1-methylheptyloxy)thieno[2,3-d][1,3]oxazin-4-one] showed an inhibition at 0.7 µM in data set [1] of 15%.
On to `CCCCCCCCNc1nc2sc(C(=O)NCc3ccccn3)c(C)c2c(=O)o1` [Entry 34, 5-Methyl-2-octylamino-4-oxo-4H-thieno[2,3-d][1,3]oxazine-6-carboxylic acid (pyridin-2-ylmethyl)amide], for which, in data set [1], the k was 0.864 10-3.s-1.
For `CCCCCCCCOc1nc2sc(CCCCCCCC)cc2c(=O)o1` [Entry 85, 6-Octyl-2-octyloxy-thieno[2,3-d][1,3]oxazin-4-one], 0.7 µM produced 96.1% inhibition in data set [1].
Turning to `CCCCCCCCNc1nc2sc(C(=O)N3CCN(CCN4CCCCC4)CC3)c(C)c2c(=O)o1` [Entry 53, 5-Methyl-2-octylamino-6-[4-(2-piperidin-1-yl-ethyl)-piperazine-1-carbonyl]-thieno[2,3-d][1,3]oxazin-4-one], the k in data set [1] was 0.166 10-3.s-1.
As for `CCCCCCCCNc1nc2sc(C(=O)NC3CCCCC3)c(C)c2c(=O)o1` [Entry 38, 5-Methyl-2-octylamino-4-oxo-4H-thieno[2,3-d][1,3]oxazine-6-carboxylic acid cyclohexylamide], in data set [1], the Ymax worked out at 0.045 and the k is listed as 2.173 10-3.s-1.
Turning to `CCCCCCCCOc1nc2sc(CCCCCC)cc2c(=O)o1` [Entry 84, 6-Hexyl-2-octyloxythieno[2,3-d][1,3]oxazin-4-one], in data set [1], the Ymax stood at 0.029, the k is recorded as 3.033 10-3.s-1 and at 0.7 µM the inhibition was 71.3%.
`CCCCCCCNC(=O)N(CCCCCCC)c1nc2sc(C(=O)OCc3ccccc3)c(C)c2c(=O)o1` [Entry 14, 2-(1,3-Diheptyl-ureido)-5-methyl-4-oxo-4H-thieno[2,3-d][1,3]oxazine-6-carboxylic acid benzyl ester]: in data set [1], the k is on record as 0.459 10-3.s-1.
On the same count and under the same terms, under `CCCCCCCCNc1nc2sc(C(=O)OCCCCCCCC)c(C)c2c(=O)o1` [Entry 20, 5-Methyl-2-octylamino-4-oxo-4H-thieno[2,3-d][1,3]oxazine-6-carboxylic acid octyl ester] stands 0.922 10-3.s-1.
Same read-out and setting: to `CCCCCCCCNc1nc2sc(C(=O)N(C)C)c(C)c2c(=O)o1` [Entry 22, 5-Methyl-2-octylamino-4-oxo-4H-thieno[2,3-d][1,3]oxazine-6-carboxylic acid dimethylamide] belongs 0.537 10-3.s-1; to `CCCCCCCCNc1nc2sc(C(=O)NCCCCCC)c(C)c2c(=O)o1` [Entry 27, 5-Methyl-2-octylamino-4-oxo-4H-thieno[2,3-d][1,3]oxazine-6-carboxylic acid hexylamide], 2.577 10-3.s-1.
In the case of `CCCCCCCCNc1nc2sc(C(=O)NCCc3cccnc3)c(C)c2c(=O)o1` [Entry 50, 5-Methyl-2-octylamino-4-oxo-4H-thieno[2,3-d][1,3]oxazine-6-carboxylic acid (2-pyridin-3-yl-ethyl)-amide], in data set [1], the k is recorded as 0.719 10-3.s-1.
Still for that read-out and setting: to `CCCCCCCCNC(=O)N(CCCCCCCC)c1nc2sc(C(=O)OCc3ccccc3)c(C)c2c(=O)o1` [Entry 13, 2-(1,3-Dioctyl-ureido)-5-methyl-4-oxo-4H-thieno[2,3-d][1,3]oxazine-6-carboxylic acid benzyl ester] belongs 0.414 10-3.s-1.
The molecule `CCCCCCCCc1cc2c(=O)oc(OCCCC)nc2s1` [Entry 95] returned an inhibition at 0.7 µM in data set [1] of 60.3%.
For `CCCCCCCCNc1nc2sc(C(=O)NCC)c(C)c2c(=O)o1` [Entry 33, 5-Methyl-2-octylamino-4-oxo-4H-thieno[2,3-d][1,3]oxazine-6-carboxylic acid ethylamide], the k in data set [1] is on record as 0.547 10-3.s-1.
On the same count and under the same terms, under `CCCCCCCCOc1nc2scc(C)c2c(=O)o1` [Entry 23, 5-Methyl-2-octyloxy-thieno[2,3-d][1,3]oxazin-4-one] stands 0.893 10-3.s-1.
